Measured values published in patent publication US11827917B1, “Methods for the conversion of fermentable sugars to ethanol” (Colorado State University Research Foundation, priority 2020, dated 2023).
“Also recorded” adds a separate entry of the source. Marks after values point to notes of the source that are not given here.

Assays:
S. cerevisiae JAY 270 [1] = assay: Screening of growth in 24-well plates on YPDA; format: cell-based, Saccharomyces cerevisiae; settings: for Cell growth score (colony size): YPDA, 30° C., 24 h; for Concentration at which cell growth was reduced in the plate assay: molar equivalent of the % w/v value; for Effect on cell growth in the plate assay (words): tested concentrations
Method: Procedure: An inoculum culture of S. cerevisiae JAY 270 was grown in 100 mL of yeast extract-peptone-dextrose (YPD) medium (10 g/L yeast extract, 20 g/L peptone, 20 g/L glucose) in 200-mL serum bottles overnight in a shaker at 30° C. and 200 rpm. The cells were collected by centrifuging 10 min at 4000×g and 4° C. To wash off the medium residue, the cell pellet was resuspended in 30 mL of sterile 0.8% (w/v) NaCl solution and centrifuged at 4000×g for 10 min. The cell pellet was washed twice. Finally, the cell pellet was resuspended and diluted in 0.8% (w/v) NaCl to achieve cell concentrations of OD600=0.02 and 0.2.
The eight compounds were added in YPDA separately at 0.03%, 0.05%, 0.1%, and 0.2% (w/v). The standard control treatment contained only YPDA medium without addition of these compounds. Since the TrpOH and TyrOH stock solutions were dissolved in DMSO, the controls for those tests were YPDA with the same concentration of DMSO. A 3-mL aliquot of YPDA medium with or without the test compounds were loaded in each well of the 24-well plate.
Ten μL of the prepared S. cerevisiae JAY 270 cell suspension at OD600=0.02 or 0.2 was loaded onto the YPDA medium in each well of the 24-well plates. Then the plates were sealed with Parafilm and incubated at 30° C. for 24 h. There were four biological replicates for each treatment.
Yeast cell growth was evaluated by visual observation of the colony size in the well and scored as 0, +, ++, and +++.

S. cerevisiae JAY 270 [2] = assay: Growth test in liquid YNB medium, low/high nitrogen, serum bottles; format: cell-based, Saccharomyces cerevisiae; settings: 40, 200, 1000 mg/L; low and high nitrogen media
Method: A second set of tests was performed in a defined liquid medium, Yeast Nitrogen Base with Glucose (YNB), containing (NH4)2SO4 at either low (1 mM) or high (10 mM) nitrogen content. […] All serum bottles were incubated in a shaker at 30° C. and 150 RPM. Each treatment was performed in biological duplicate. Samples were collected at 0, 5, and 10 hours.

S. kudriavzezii JAY 1503 = assay: Serum-bottle cultivation in YPD, different yeast strains; format: cell-based; settings: 0.2%; for DCW / DCW Δ vs. ref / OD600 / OD600 Δ vs. ref: S. kudriavzezii JAY 1503, YPD
Method: (§1) Analytical methods: Cell growth was evaluated by monitoring OD600 and cell dry mass concentration. For dry mass measurements, 1.0 mL of culture was transferred to a pre-dried and pre-weighed 2-mL centrifuge tube. The tubes were centrifuged for 10 min at 14000 rpm using a microcentrifuge, and then the cell pellets were dried in an oven for 3 days at 65° C. The cell dry mass was determined by subtracting the initial tube mass from the dried mass of tube with cells. The concentrations of glucose, ethanol, and glycerol were measured via HPLC (Shimadzu LC20A series) outfitted with a refractive index detector and using an Aminex HPX-87H (300×7.8 mm) organic acid column and Cation H+ guard cartridge (Bio Rad Laboratories, Hercules, CA). The column was maintained at 65° C. and the mobile phase was 5 mM sulfuric acid with a flow rate of 0.6 mL/min. Standard compound solutions were used to calibrate the HPLC. Each sample was analyzed three times by HPLC.
(§2) Procedure: Seven yeast strains (S. cerevisiae ATCC 26603, S. cerevisiae JAY 238, S. cerevisiae JAY 240, S. cerevisiae JAY 241, S. paradoxus JAY 1502, S. kudriavzezii JAY 1503, and S. mikatae JAY 1504) were pre-cultured in 30 mL of YPD medium in 100 mL serum bottle overnight in a shaker at 30° C. and 200 rpm. The precultured yeast cells of each strains were collected and washed twice. Finally, the cell pellet was resuspended in about 10 mL 0.8% (w/v) NaCl and the OD600 measured. TyrOH, PheOH, and TrpOH were added to 30 mL of YPD medium in 100-mL serum bottles at 0.2% (w/v) respectively. The same amount of DMSO was added in YPD medium and served as control to the TrpOH and TyrOH treatments. The prepared yeast cells were added to obtain the initial cell concentration at OD600=0.2. The serum bottles were sealed and cultured in a shaker at 30° C. and 200 rpm for 24 h. There were three biological replicates for each treatment.

S. mikatae JAY 1504 = assay: as above; format: cell-based; settings: 0.2%; for DCW / DCW Δ vs. ref / OD600 / OD600 Δ vs. ref: S. mikatae JAY 1504, YPD
Method: as §1, §2

S. paradoxus JAY 1502 = assay: as above; format: cell-based; settings: 0.2%; for DCW / DCW Δ vs. ref / OD600 / OD600 Δ vs. ref: S. paradoxus JAY 1502, YPD
Method: as §1, §2

[3] = S. kudriavzezii JAY 1503, YPD (Table 9B)
[4] = S. mikatae JAY 1504, YPD (Table 9B)
[5] = S. paradoxus JAY 1502, YPD (Table 9B)

## OCCc1ccc(O)cc1 [TyrOH, Tyrosol]
S. cerevisiae JAY 270 [1]; 0.03% (w/v)
  Cell growth score (colony size): +++
S. cerevisiae JAY 270 [1]; 0.05% (w/v)
  Cell growth score (colony size): +++
S. cerevisiae JAY 270 [1]; 0.10% (w/v)
  Cell growth score (colony size): +++
S. cerevisiae JAY 270 [1]; 0.20% (w/v)
  Cell growth score (colony size): +
S. cerevisiae JAY 270 [1]
  Concentration at which cell growth was reduced in the plate assay: 7.2 mM
S. cerevisiae JAY 270 [1]; 24-well plates
  Effect on cell growth in the plate assay (words): inhibited growth; also recorded: reduced the growth
S. cerevisiae JAY 270 [2]
  Inhibitory effect on yeast cell growth in liquid YNB medium: inhibitory at 1000 mg/L in both media, but not at 40 and 200 mg/L
S. kudriavzezii JAY 1503; S. kudriavzezii JAY 1503
  Biomass Yield: 0.029 ± 0.000 g/g
  Biomass yield % change vs. control: −35* %
  EtOH yield: 0.388 ± 0.000 g/g
  EtOH yield % change vs. control: +7.8* %
  Glycerol yield: 0.056 ± 0.001 g/g
  Glycerol yield % change vs. control: +8.1%
S. kudriavzezii JAY 1503
  DCW: 2.10 mg
  DCW Δ vs. ref: 82.4%
  OD600: 0.82
  OD600 Δ vs. ref: 52.4%
S. kudriavzezii JAY 1503; [3]
  Biomass Yield: 0.029 + 0.000 g/g
  Biomass yield Δ vs. ref: −35.1%
  Ethanol yield: 0.388 ± 0.000 g/g
  Ethanol yield Δ vs. ref: 7.8%
  Glycerol yield: 0.056 ± 0.001 g/g
  Glycerol yield Δ vs. ref: 8.07%
S. mikatae JAY 1504; S. mikatae JAY 1504
  Biomass Yield: 0.052 ± 0.000 g/g
  Biomass yield % change vs. control: −20* %
  EtOH yield: 0.359 ± 0.042 g/g
  EtOH yield % change vs. control: +6.7* %
  Glycerol yield: 0.036 ± 0.001 g/g
  Glycerol yield % change vs. control: −24* %
S. mikatae JAY 1504
  DCW: 2.65 mg
  DCW Δ vs. ref: 79.1%
  OD600: 1.75
  OD600 Δ vs. ref: 77.3%
S. mikatae JAY 1504; [4]
  Biomass Yield: 0.052 + 0.000 g/g
  Biomass yield Δ vs. ref: −20.1%
  Ethanol yield: 0.359 ± 0.042 g/g
  Ethanol yield Δ vs. ref: 6.7%
  Glycerol yield: 0.036 ± 0.001 g/g
  Glycerol yield Δ vs. ref: −23.65%
S. paradoxus JAY 1502; S. paradoxus JAY 1502
  Biomass Yield: 0.055 ± 0.000 g/g
  Biomass yield % change vs. control: −15* %
  EtOH yield: 0.410 ± 0.014 g/g
  Glycerol yield: 0.041 ± 0.001 g/g
  Glycerol yield % change vs. control: −9.9%
S. paradoxus JAY 1502
  DCW: 2.15 mg
  DCW Δ vs. ref: 81.1%
  OD600: 1.90
  OD600 Δ vs. ref: 85.5%
S. paradoxus JAY 1502; [5]
  Biomass Yield: 0.055 + 0.000 g/g
  Biomass yield Δ vs. ref: −15.4%
  Ethanol yield: 0.410 ± 0.014 g/g
  Ethanol yield Δ vs. ref: 5.4%
  Glycerol yield: 0.041 ± 0.001 g/g
  Glycerol yield Δ vs. ref: −9.89%

## OCCc1c[nH]c2ccccc12 [TrpOH, tryptophol]
S. cerevisiae JAY 270 [1]; 0.03% (w/v)
  Cell growth score (colony size): +++
S. cerevisiae JAY 270 [1]; 0.05% (w/v)
  Cell growth score (colony size): ++
S. cerevisiae JAY 270 [1]; 0.10% (w/v)
  Cell growth score (colony size): +
S. cerevisiae JAY 270 [1]; 0.20% (w/v)
  Cell growth score (colony size): 0
S. cerevisiae JAY 270 [1]
  Concentration at which cell growth was reduced in the plate assay: 3.1 mM
S. cerevisiae JAY 270 [1]; 24-well plates
  Effect on cell growth in the plate assay (words): inhibited growth; also recorded: reduced the growth
S. cerevisiae JAY 270 [1]; w/v, 24-well plates
  Concentration at which cell growth was reduced/inhibited in the plate assay: 0.05%
S. cerevisiae JAY 270 [2]
  Inhibitory effect on yeast cell growth in liquid YNB medium: strongest inhibitory effect
S. kudriavzezii JAY 1503; S. kudriavzezii JAY 1503
  Cell growth: very low cell growth
S. kudriavzezii JAY 1503
  DCW: 0.48 mg
  DCW Δ vs. ref: 18.6%
  OD600: 0.16
  OD600 Δ vs. ref: 9.9%
S. mikatae JAY 1504; S. mikatae JAY 1504
  Cell growth: very low cell growth
S. mikatae JAY 1504
  DCW: 1.45 mg
  DCW Δ vs. ref: 43.3%
  OD600: 0.64
  OD600 Δ vs. ref: 28.1%
S. paradoxus JAY 1502; S. paradoxus JAY 1502
  Biomass Yield: 0.038 ± 0.001 g/g
  Biomass yield % change vs. control: −42* %
  EtOH yield: 0.417 ± 0.056 g/g
  EtOH yield % change vs. control: +7.2* %
  Glycerol yield increase from control: 71%
S. paradoxus JAY 1502
  DCW: 1.40 mg
  DCW Δ vs. ref: 52.8%
  OD600: 0.40
  OD600 Δ vs. ref: 18.0%
S. paradoxus JAY 1502; [5]
  Biomass Yield: 0.038 + 0.001 g/g
  Biomass yield Δ vs. ref: −42.0%
  Ethanol yield: 0.417 ± 0.056 g/g
  Ethanol yield Δ vs. ref: 7.2%
